# From article PMC8906351 (Pharmaceutical research, 2021)
# Counter-ions that a name gives are not always drawn.
# Columns and labels:
# [1] = test system: [^14C]phenytoin efflux across the rat BBB; test: BEI inhibition study: pre-administration of compounds into rat Par2 region; assay type: in vivo; settings: for effect of pre-administration on [14C]phenytoin BEI (in words): 20 mM desipramine, probenecid, MK-571, 5 mM quinidine, 4 mM verapamil, 500 μM prazosin, 10 mM methotrexate, DHEAS, PSC833
# MCT8 = settings: concentration of 1 mM; cited from earlier work
# Brain efflux index [2] = settings: rat
# P-glycoprotein (P-gp) = test: In situ brain perfusion in wild-type and mdr1a/1b knockout mice; assay type: in vivo, mouse; settings: [14C]phenytoin 2.73 μM; perfusion 2.5 mL/min for 2 min
# [3] = rat, 0.01 uCi
# in vivo = settings: rat, not told
# Brain efflux index [4] = assay type: in vivo, mouse
# [5] = adult rats; brain uptake index; cited from earlier work
smiles,measurement,setting,value
"C=C[C@H]1C[N@@]2CC[C@H]1C[C@@H]2[C@@H](O)c1ccnc2ccc(OC)cc12 [Quinidine, quinidine]",BEI (%),"[1]; 0.5 h, 5000 µM",50.5 ± 13.1%
same,effect of pre-administration on [14C]phenytoin BEI (in words),"[1]; rat, 30 min",not significantly altered
C/C=C/C[C@@H](C)C(=O)[C@H]1C(=O)N[C@@H](C(C)C)C(=O)N(C)CC(=O)N(C)[C@@H](CC(C)C)C(=O)N[C@@H](C(C)C)C(=O)N(C)[C@@H](CC(C)C)C(=O)N[C@@H](C)C(=O)N[C@H](C)C(=O)N(C)[C@@H](CC(C)C)C(=O)N(C)[C@@H](CC(C)C)C(=O)N(C)[C@@H](C(C)C)C(=O)N1C [PSC833],effect of pre-administration on [14C]phenytoin BEI (in words),"[1]; rat, 30 min",did not alter
"CN(Cc1cnc2nc(N)nc(N)c2n1)c1ccc(C(=O)N[C@@H](CCC(=O)O)C(=O)O)cc1 [Methotrexate, methotrexate]",BEI (%),"[1]; 0.5 h, 10000 µM",67.3 ± 16.7%
same,effect of pre-administration on [14C]phenytoin BEI (in words),"[1]; rat, 30 min",not significantly altered
"O=C1OC(c2ccc(O)c(S(=O)(=O)O)c2)(c2ccc(O)c(S(=O)(=O)O)c2)c2c(Br)c(Br)c(Br)c(Br)c21 [BSP, Bromosulfophthalein]",decrease of [14C]phenytoin BEI,"[1]; rat, 30 min, pre-administration of 20 mM",82%
same,inhibition of MCT8-mediated transport of the other substrates,MCT8,more than 50%
"CCCN(CCC)S(=O)(=O)c1ccc(C(=O)O)cc1 [Probenecid, probenecid]",BEI (%),"[1]; 0.5 h, 20000 µM",56.5 ± 24.9%
same,effect of pre-administration on [14C]phenytoin BEI (in words),"[1]; rat, 30 min",not significantly altered
CN(C)C(=O)CCSC(SCCC(=O)O)c1cccc(/C=C/c2ccc3ccc(Cl)cc3n2)c1 (centres unmarked) [MK-571],effect of pre-administration on [14C]phenytoin BEI (in words),"[1]; rat, 30 min",not significantly altered
"O=C1NC(=O)C(c2ccccc2)(c2ccccc2)N1 [phenytoin, 5,5-diphenylhydantoin]",elimination clearance relative to influx clearance,Brain efflux index [2]; 177 vs 64 μL/(min·g brain) of Cornford et al.,2.8 fold
same,elimination clearance across the BBB,"Brain efflux index [2]; from kel, bbb and Vd, brain",177 ±20 μL/(mim•g brain)
same,"Kin value, wild-type vs mdr1a/1b knockout mice",P-glycoprotein (P-gp),not significantly different
same,"elimination rate constant kel, bbb",[3]; in vivo,0.0413 ± 46 min⁻¹
same,half-life t1/2 of brain efflux,[3]; not told,16.8 ± 1.9 min
same,half-life,in vivo,17 min
same,"brain elimination rate constant kel, BBB","Brain efflux index [4]; mice, [14C]phenytoin 1.15 mM, 0.3 μL injected into S2 region",0.0223 ± 0.0075 min⁻¹
same,half-life t1/2 in the brain,"Brain efflux index [4]; mice, [14C]phenytoin injected into S2 region",31.1 ± 10.8 min
same,half-life,"Brain efflux index [4]; mouse, brain (ipsilateral hemisphere), 0.019 μCi/0.3 μL (= 1.15 mM)",31 min
same,100 − BEI value of [14C]phenytoin compared to control,"[1]; rat, 30 min, pre-administration of 1 mM unlabeled phenytoin",significantly increased
same,blood-to-brain influx clearance,[5],64 μL/(min·g brain)
"COc1cc2nc(N3CCN(C(=O)c4ccco4)CC3)nc(N)c2cc1OC [Prazosin, prazosin]",effect of pre-administration on [14C]phenytoin BEI (in words),"[1]; rat, 30 min",not significantly altered
same,BEI (%),"[1]; rat, 30 min, compound 0.5 mM pre-administered, control 64.1 ± 12.9",59.4 ± 8.5%
"CNCCCN1c2ccccc2CCc2ccccc21 [Desipramine, desipramine hydrochloride]",BEI (%),"[1]; 0.5 h, 20000 µM",28.4 ± 20.7%
same,effect of pre-administration on [14C]phenytoin BEI (in words),"[1]; rat, 30 min",significantly decreased
same,inhibition of MCT8-mediated transport of the other substrates,MCT8,more than 50%
